In publication PMC8752476 (Journal of molecular biology, 2021):

Assays:
[1] = tested on: Abl^FK (SH3-SH2 module and kinase domain); test: NMR; set-up: species or system human; conditions: GNF5 displaces imatinib from the myristoyl pocket
Abl^Y272H/A363V = test: Kinase assay, phosphorylation of CrkII, Abl Y272H/A363V; assay type: biochemical, human

Row | SMILES | effect on equilibrium, GNF5 added to imatinib-bound Abl^FK [1] | kinase activity of Abl^Y272H/A363V in the presence of both imatinib and GNF5 (Abl^Y272H/A363V; 2 mM ATP) | kinase activity of Abl^Y272H/A363V in the presence of imatinib (Abl^Y272H/A363V; 2 mM ATP, compared with Abl^Y272H/L359A) | effect on catalytic activity of Abl^Y272H/A363V at high ATP (Abl^Y272H/A363V; 20 mM ATP)
1 | O=C(NCCO)c1cccc(-c2cc(Nc3ccc(OC(F)(F)F)cc3)ncn2)c1 [GNF5] | shifts the population almost fully towards the inhibited state | strongly suppressed |  | 
2 | Cc1ccc(NC(=O)c2ccc(CN3CCN(C)CC3)cc2)cc1Nc1nccc(-c2cccnc2)n1 [imatinib] |  |  | significantly higher than the activity of Abl^Y272H/L359A | significantly increases the catalytic activity
